Read-outs that look alike come from different tables or passages of the source.
Tests used:
[1] = target: T1, Full length Human HDAC10 (Homo sapiens, UniProt Q969S8)
T1 sequence (Q969S8 1-669): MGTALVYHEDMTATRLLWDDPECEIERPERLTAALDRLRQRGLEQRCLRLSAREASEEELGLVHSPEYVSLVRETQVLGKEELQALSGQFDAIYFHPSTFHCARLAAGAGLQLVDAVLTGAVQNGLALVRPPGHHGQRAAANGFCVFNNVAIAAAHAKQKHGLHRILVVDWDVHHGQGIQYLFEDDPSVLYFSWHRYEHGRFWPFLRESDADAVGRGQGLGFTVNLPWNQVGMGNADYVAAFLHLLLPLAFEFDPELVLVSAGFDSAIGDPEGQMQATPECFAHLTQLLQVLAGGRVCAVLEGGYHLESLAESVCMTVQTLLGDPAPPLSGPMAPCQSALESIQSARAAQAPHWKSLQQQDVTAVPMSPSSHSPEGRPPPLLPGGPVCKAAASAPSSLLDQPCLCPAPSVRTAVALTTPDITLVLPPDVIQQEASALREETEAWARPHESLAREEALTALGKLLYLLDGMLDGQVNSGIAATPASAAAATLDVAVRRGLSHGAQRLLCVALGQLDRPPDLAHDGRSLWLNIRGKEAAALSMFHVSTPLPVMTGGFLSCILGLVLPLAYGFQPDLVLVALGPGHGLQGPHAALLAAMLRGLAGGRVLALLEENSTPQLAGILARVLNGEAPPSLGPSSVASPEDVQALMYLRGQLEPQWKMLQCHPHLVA

[2] = target: T2, Human HDAC7 aa 518-end (Homo sapiens, UniProt Q8WUI4)
T2 sequence (Q8WUI4 518-952 limits assumed): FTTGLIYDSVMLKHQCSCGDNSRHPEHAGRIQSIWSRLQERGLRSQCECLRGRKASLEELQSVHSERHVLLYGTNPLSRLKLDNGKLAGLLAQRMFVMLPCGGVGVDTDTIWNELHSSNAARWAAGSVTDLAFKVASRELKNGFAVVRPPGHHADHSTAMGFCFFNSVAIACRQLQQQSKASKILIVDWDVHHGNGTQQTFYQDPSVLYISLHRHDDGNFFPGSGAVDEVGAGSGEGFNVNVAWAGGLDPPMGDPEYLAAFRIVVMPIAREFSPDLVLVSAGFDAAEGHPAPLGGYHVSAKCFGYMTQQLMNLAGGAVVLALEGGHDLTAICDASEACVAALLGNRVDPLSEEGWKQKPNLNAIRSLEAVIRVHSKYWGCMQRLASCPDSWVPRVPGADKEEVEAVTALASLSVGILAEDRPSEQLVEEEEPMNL

[3] = target: T3, Full length Human HDAC8 (Homo sapiens, UniProt Q9BY41)
T3 sequence (Q9BY41 1-377): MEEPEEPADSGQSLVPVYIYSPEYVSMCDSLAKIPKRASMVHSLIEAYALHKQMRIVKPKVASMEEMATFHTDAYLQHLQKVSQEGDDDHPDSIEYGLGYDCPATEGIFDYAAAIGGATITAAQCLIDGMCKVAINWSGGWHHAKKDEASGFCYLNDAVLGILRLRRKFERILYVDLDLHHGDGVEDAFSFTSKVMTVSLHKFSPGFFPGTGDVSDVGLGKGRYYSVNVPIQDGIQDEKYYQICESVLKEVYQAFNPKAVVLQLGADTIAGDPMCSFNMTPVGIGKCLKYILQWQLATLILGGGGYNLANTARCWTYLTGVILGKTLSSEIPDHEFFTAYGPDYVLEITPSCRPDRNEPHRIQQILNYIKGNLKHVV

[4] = target: T4, Full length Human HDAC6 (Homo sapiens, UniProt Q9UBN7); settings: for Selectivity (6 v 8) (fold): ratio of HDAC8 IC50/HDAC6 IC50
T4 sequence (Q9UBN7 1-1215): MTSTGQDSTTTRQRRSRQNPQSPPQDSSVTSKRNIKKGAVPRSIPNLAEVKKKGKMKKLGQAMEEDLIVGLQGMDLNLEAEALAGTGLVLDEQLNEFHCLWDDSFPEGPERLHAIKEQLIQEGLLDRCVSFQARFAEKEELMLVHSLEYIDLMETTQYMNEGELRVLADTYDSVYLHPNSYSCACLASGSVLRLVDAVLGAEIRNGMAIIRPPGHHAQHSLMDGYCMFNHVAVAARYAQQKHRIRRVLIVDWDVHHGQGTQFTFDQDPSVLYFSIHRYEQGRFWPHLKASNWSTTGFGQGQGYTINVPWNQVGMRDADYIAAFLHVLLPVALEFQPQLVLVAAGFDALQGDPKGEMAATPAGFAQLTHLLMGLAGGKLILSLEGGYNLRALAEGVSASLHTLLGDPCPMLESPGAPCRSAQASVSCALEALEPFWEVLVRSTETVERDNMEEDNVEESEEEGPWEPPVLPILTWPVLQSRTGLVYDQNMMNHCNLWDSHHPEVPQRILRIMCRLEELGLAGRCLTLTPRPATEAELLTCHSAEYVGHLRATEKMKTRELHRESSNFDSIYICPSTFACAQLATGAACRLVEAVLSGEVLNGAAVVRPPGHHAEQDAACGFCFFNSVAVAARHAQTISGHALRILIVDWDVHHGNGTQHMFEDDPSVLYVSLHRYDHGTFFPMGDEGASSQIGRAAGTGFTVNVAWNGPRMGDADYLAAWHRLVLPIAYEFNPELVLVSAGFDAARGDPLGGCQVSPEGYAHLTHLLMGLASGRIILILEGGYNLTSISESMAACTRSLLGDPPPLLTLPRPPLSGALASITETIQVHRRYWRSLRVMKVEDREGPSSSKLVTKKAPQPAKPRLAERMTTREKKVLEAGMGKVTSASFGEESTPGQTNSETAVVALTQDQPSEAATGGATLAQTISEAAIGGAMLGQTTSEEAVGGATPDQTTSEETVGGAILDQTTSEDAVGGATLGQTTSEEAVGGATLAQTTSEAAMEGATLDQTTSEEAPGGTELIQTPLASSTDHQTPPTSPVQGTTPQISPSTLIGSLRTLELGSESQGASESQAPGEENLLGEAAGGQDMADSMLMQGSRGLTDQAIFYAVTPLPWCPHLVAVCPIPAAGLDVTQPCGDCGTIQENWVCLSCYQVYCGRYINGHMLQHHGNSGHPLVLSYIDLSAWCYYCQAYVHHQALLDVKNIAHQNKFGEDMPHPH

[5] = read-out: In vitro enzymatic IC50, HDAC Paralog 8, Table 2
[6] = read-out: In vitro enzymatic IC50, HDAC Paralog 6, Table 2

IC50 [1] [µM] | IC50 [2] [µM] | IC50 [3] [µM] | IC50 [3, 5] [µM] | IC50 [4] [nM] | IC50 [4, 6] [nM] | Selectivity (6 v 8) (fold) ([4]; Table 1, number) | Selectivity (6 v 8) (fold) ([4]; Table 1, range class) | SMILES
10 to 100 | > 100 | 10 to 100 | 10 to 100 | 1 to 100 | 1 to 100 |  |  | CC(C)(C)CN1CCc2cc(C(=O)NO)cc(F)c2C1 [compound 20]
10 to 100 | 10 to 100 | 1 to 10 |  | 1 to 100 |  |  |  | O=C(NO)c1ccc2c(c1)C[C@H]1COCC(=O)N1C2 (single isomer, unassigned) [compound 134]
10 to 100 | 1 to 10 | 1 to 10 | 1 to 10 | 1 to 100 | 1 to 100 | 68 | III (III: >10-100) | CN1CC2(CCCCC2)CC[C@@H]1Cc1cc(F)cc(C(=O)NO)c1 (single isomer, unassigned) [compound 170]
10 to 100 | 1 to 10 | 0.1 to 1 | 0.1 to 1 | 1 to 100 | 1 to 100 |  |  | O=C(NO)c1ccc(CN2C3CCC2COC3)c(F)c1 [compound 59]
10 to 100 | 0.1 to 1 | 1 to 10 |  | 1 to 100 |  |  |  | C[C@H]1CC[C@H]2c3c(F)cc(C(=O)NO)cc3CCN12 (single isomer, unassigned) [compound 157]
10 to 100 | 10 to 100 | 1 to 10 | 1 to 10 | 1 to 100 |  |  |  | O=C(NO)c1cc(F)c2c(c1)CCN([C@@H]1CCC3(CCCCC3)C1)C2 (single isomer, unassigned) [compound 110]
10 to 100 | 1 to 10 | 1 to 10 |  | 1 to 100 |  |  |  | O=C(NO)c1cc(F)c2c(c1)CCN1CCCC[C@@H]21 (single isomer, unassigned) [compound 139]
> 100 | 1 to 10 | 1 to 10 | 1 to 10 | 1 to 100 | 1 to 100 |  |  | O=C(NO)c1cc(F)c2c(c1)CCN(C1COC1)C2 [compound 24]
> 100 | 0.1 to 1 | 1 to 10 |  | 1 to 100 |  |  |  | C[C@@H]1CC[C@H]2c3c(F)cc(C(=O)NO)cc3CCN12 (single isomer, unassigned) [compound 158]
> 100 | 1 to 10 | 1 to 10 |  | 1 to 100 |  |  |  | CC1(C)C[C@@H]2Cc3c(F)cc(C(=O)NO)cc3CN2C1 (single isomer, unassigned) [compound 127]
10 to 100 | 1 to 10 | 1 to 10 | 1 to 10 | 100 to 1000 | 100 to 1000 | 24.9 | III (III: >10-100) | O=C(NO)c1ccc(CN2CCC3(CCCCC3)CC2)c(F)c1 [compound 74]
> 100 | 10 to 100 | 0.1 to 1 | 0.1 to 1 | 1000 to 10000 | 1000 to 10000 | 0.4 | I (I: 0.1-1) | O=C(NO)c1ccc(CN2CCC3(C2)C2CC4CC(C2)CC3C4)c(F)c1 (stereo not shown) [compound 78]
> 100 | 1 to 10 | 1 to 10 |  | 1 to 100 |  |  |  | O=C(NO)c1cc(F)c2c(c1)C[C@@H]1CC3(CCCCC3)CN1C2 (single isomer, unassigned) [compound 136]
10 to 100 | 10 to 100 | 1 to 10 | 1 to 10 | 1 to 100 | 1 to 100 |  |  | O=C(NO)c1cc(F)c2c(c1)CCN(CC1CCCCC1)C2 [compound 19]
10 to 100 | 10 to 100 | 10 to 100 | 10 to 100 | 1 to 100 | 1 to 100 | 461.1 | IV (IV: >100-1000) | O=C(NO)c1cc(F)c2c(c1)CCN(C1CC3(COC3)C1)C2 [compound 111]
> 100 | 1 to 10 | 10 to 100 | 10 to 100 | 1 to 100 | 1 to 100 |  |  | O=C(NO)c1cc(F)c2c(c1)CCN(CC1COC1)C2 [compound 27]
> 100 | 1 to 10 | 1 to 10 |  | 100 to 1000 |  |  |  | CC1(C)C[C@H]2Cc3c(F)cc(C(=O)NO)cc3CN2C1 (single isomer, unassigned) [compound 128]
> 100 | 10 to 100 | > 100 | > 100 | 1 to 100 | 1 to 100 | >12414.6 | V (V: >1000) | O=C(NO)c1cc(F)c2c(c1)CCN(C1CC3(CCC3)C1)C2 [compound 112]

SMILES | IC50 [1] [µM] | IC50 [2] [µM] | IC50 [3] [µM] | IC50 [3, 5] [µM] | IC50 [4] [nM] | IC50 [4, 6] [nM] | Selectivity (6 v 8) (fold) ([4]; Table 1, number) | Selectivity (6 v 8) (fold) ([4]; Table 1, range class)
O=C(NO)c1ccc(CN2C3CCCC2CC3)c(F)c1 [compound 61] | > 100 | 1 to 10 | 1 to 10 | 1 to 10 | 100 to 1000 | 100 to 1000 | 9.6 | II (II: >1-10)
O=C(NO)c1ccc(CN2C3CCC2CC(=NO)C3)c(F)c1 [compound 54] | > 100 | 1 to 10 | 0.1 to 1 | 0.1 to 1 | 1 to 100 | 1 to 100 | 38.9 | III (III: >10-100)
O=C(NO)c1ccc(CN2C3CCCC2CCC3)c(F)c1 [compound 60] | > 100 | 1 to 10 | 1 to 10 | 1 to 10 | 100 to 1000 | 100 to 1000 | 5.8 | II (II: >1-10)

From patent publication US12528767B2, “HDAC6 inhibitors and uses thereof” (Eikonizo Therapeutics, Inc., priority 2019, dated 2026)
